# Entries after “also recorded” stand apart in the source; their conditions may differ.
# What was measured:
# Nrf2 [1] = assay: Nrf2 nuclear translocation in primary adipocytes (immunofluorescence); format: cell-based, mice; details: 40 μmol/L ASP for 24 hours
# Method: Primary adipocytes were treated with 40 μmol/L ASP (FIG. 22A) or different doses of ASP (FIG. 22B) for 24 hours. […] Scale bar, 50 μm (FIG. 22B). Data represent means±SEM of 4 experiments. P values were determined using One-way ANOVA. *p<0.05.
# (§1) After induction of obesity in C57BL/6 male mice fed with the high-fat diet for twelve weeks, they were treated daily with ASP (50 mg/kg) via oral gavage for seven weeks in vivo study. C57BL/6 mice aortae were used for ex vivo studies. Endothelial cells, HepG2 and primary adipocytes were used for in vitro studies. Vascular function was determined by wire myograph. H&E staining was employed for histological examination. Oil Red O staining was used to determine lipid droplets in tissues and cells. DHE and MitoSOX staining were used to detect ROS levels. QPCR, aortic en-face immunofluorescence staining, and Western blotting were used to analyze mRNA and protein expressions. ARE binding activity was determined by Dual luciferase reporter assay. Small interfering (si)RNA of Nrf2 and HO-1, inhibitors of Nrf2 (ML385, Cat. No.: HY-100523) and HO-1 (OB-24, HY-118487) were used to elucidate the mechanistic pathway of ASP's action.
# [2] = test system: high-fat diet (HFD)-fed mice; assay: Vascular function by wire myograph, aortas of obese mice; format: in vivo; details: ASP 50 mg/kg oral gavage daily for seven weeks
# Method: (§2) After induction of obesity in C57BL/6 male mice fed with high fat diet for twelve weeks, they were treated daily with ASP (50 mg/kg) via oral gavage for seven weeks in vivo study. C57BL/6 mice aortae were used for ex vivo study and endothelial cells were used for in vitro study. Vascular function was determined by wire myograph. DHE and MitoSOX staining were used to detect ROS levels. QPCR, aortic en-face immunofluorescence staining, and Western blotting were used to analyze mRNA and protein expressions. Small interfering (si)RNA of Nrf2 and HO-1, inhibitors of Nrf2 (ML385, Cat. No.: HY-100523) and HO-1 (OB-24, HY-118487) were used to elucidate the mechanistic pathway of ASP's action.
# as §1, with “QPCR, aortic en-face immunofluorescence staining, and Western blotting were used to analyze mRNA and protein expressions.” left out, “Small interfering (si)RNA of Nrf2 and HO-1, inhibitors of Nrf2 (ML385, Cat. No.: HY-100523) and HO-1 (OB-24, HY-118487) were used to elucidate the mechanistic pathway of ASP's action.” left out
# ICAM-1 = assay: Real-time PCR of ICAM-1 in aortas of obese mice; format: in vivo
# Method: as §2
# as §1, with “QPCR, aortic en-face immunofluorescence staining, and Western blotting were used to analyze mRNA and protein expressions.” left out, “Small interfering (si)RNA of Nrf2 and HO-1, inhibitors of Nrf2 (ML385, Cat. No.: HY-100523) and HO-1 (OB-24, HY-118487) were used to elucidate the mechanistic pathway of ASP's action.” left out
# [3] = test system: adipose tissues of obese mice; assay: Real-time PCR of adipose tissues of obese mice; format: in vivo
# Method: as §1
# obese mice livers = assay: ATP levels in obese mice livers; format: in vivo
# Method: as §1
# [4] = test system: Cpt1α, Cpt1β, mitochondrial complex, Pgc1α; assay: Real-time PCR of mitochondrial genes in obese mice livers; format: in vivo
# Method: as §1
# Nrf2 [5] = assay: Nrf2 nuclear translocation in palmitic acid-treated HepG2 cells; format: cell-based
# Method: as §1
# [6] = test system: HO-1, SIRT1, SIRT6, and SOD2; assay: Real-time PCR of Nrf2 downstream genes in PA-treated HepG2 cells; format: cell-based
# Method: as §1
# HO-1 [7] = assay: Aortic en-face immunofluorescence staining of HO-1; set-up: species or system mice
# Method: as §2, §1
# HO-1 [8] = assay: HO-1 expression in endothelial cells (western blotting, real-time PCR); format: cell-based
# Method: as §2, §1
# [9] = perirenal adipose tissues in obese mice
# [10] = visceral adipose tissues in obese mice
# [11] = endothelial cells under basal conditions
substance,measurement,setting,value
Asperuloside,Nrf2 nuclear translocation,Nrf2 [1],stimulates Nrf2 nuclear translocation in adipocytes
same,acetylcholine-induced endothelium-dependent relaxations (EDRs),[2],prevents HFD-induced impairment of EDRs; also recorded: significantly reversed the impairments of endothelium-dependent relaxations; also recorded: significantly improved endothelial-dependent relaxations
same,endothelium-independent relaxations in response to sodium nitroprusside (SNP),[2],remain similar among different groups
same,ICAM-1 mRNA expression,"ICAM-1; aortas of obese mice, real-time PCR",decreases elevated expression of VCAM-1 and ICAM-1 mRNA
same,reduction of ICAM-1 expression,"ICAM-1; obese mice aortae, ASP 50 mg/kg oral gavage daily for seven weeks",about 2 fold
same,Cd36 upregulation,[3]; perirenal adipose tissues,inhibited Cd36 upregulation
same,Acox1 expression,[3]; [9],increased
same,Nprc expression,[3]; [9],downregulates Nprc expression
same,mRNA expression levels of Srebp1 and Acc2,[3]; [9],decreases mRNA expression levels of Srebp1 (FIG. 15A) and Acc2
same,expression levels of Il-6 and Il-1β,[3]; perirenal adipose tissues of obese mice,reverses enhanced expression levels of Il-6 (FIG. 16A) and Il-1β
same,Cd36 upregulation,[3]; subcutaneous adipose tissues,inhibited Cd36 upregulation
same,Hsl expression,[3]; subcutaneous adipose tissues in obese mice,upregulates Hsl expression
same,expression of F4/80,[3]; subcutaneous adipose tissues of obese mice,reverses the elevated expression of F4/80
same,Nprc expression,[3]; [10],decreased Nprc expression
same,Tnfα expression,[3]; [10],decreases Tnfα expression
same,"upregulation of Cd11c, Cd11b, and F4/80",[3]; visceral adipose tissues of obese mice,"suppresses the upregulation of Cd11c (FIG. 20A), Cd11b (FIG. 20B), and F4/80"
same,ATP levels,obese mice livers,increases ATP levels
same,"mRNA expressions of Cpt1α, Cpt1β, mitochondrial complex, and Pgc1α",[4],reverses these impairments
same,Nrf2 nuclear translocation (immunofluorescence),Nrf2 [5],stimulates Nrf2 nuclear translocation in palmitic acid-treated HepG2 cells
same,"mRNA expression of HO-1, SIRT1, SIRT6, and SOD2",[6]; 250 μmol/L PA-treated HepG2 cells for 16 hours,"dose-dependently increases mRNA expression of HO-1, SIRT1, SIRT6, and SOD2"
same,increase of HO-1 mRNA expression,"[6]; palmitic acid-impaired HepG2 cells, cf. FIG. 13F",at least 2 fold
same,HO-1 expression (en-face immunofluorescence),HO-1 [7]; EC-specific knockdown of Nrf2,EC-specific knockdown of Nrf2 abolishes the upregulation of HO-1 by ASP treatment
same,HO-1 expression (en-face immunofluorescence),HO-1 [7]; OB-24-treated aortas,fails to increase HO-1 expression
same,endothelial HO-1 expression (en-face immunofluorescence),HO-1 [7]; inhibition of Nrf2/ARE binding (ML385),inhibition of Nrf2/ARE binding eliminates the endothelial upregulation of HO-1 by ASP treatment
same,HO-1 mRNA,"HO-1 [8]; IL-1β, ML385-treated cells",fails to restore IL-1β-mediated downregulation of HO-1 protein (FIG. 4B) and mRNA
same,HO-1 protein,"HO-1 [8]; IL-1β, ML385-treated cells",fails to restore IL-1β-mediated downregulation of HO-1 protein
same,HO-1 upregulation (western blotting),HO-1 [8]; Nrf2-silenced cells,ASP-induced upregulation of HO-1 is eliminated; also recorded: Nrf2 knockdown attenuated HO-1 upregulation by ASP
same,HO-1 expression (western blotting),HO-1 [8]; [11],dose-dependently upregulated HO-1 expression
same,HO-1 mRNA (real-time PCR),HO-1 [8]; [11],dose-dependently increases HO-1 mRNA

# — patent US20250205265A1, “ASPERULOSIDE AS AN AGENT FOR IMPROVING VASCULAR AND METABOLIC FUNCTION IN OBESITY: ROLE OF NRF2 ACTIVATION” (The Chinese University of Hong Kong, priority 2023, published 2025)
